The subject of one assay is LRRK2. The assay can be described thus: Concentration dependent phosphorylation of Nictide / LongLRRKtide by LRRK2. The format is biochemical. The text has this:
A longer LRRKtide, with the +7 to +12 residues of the Thr 558 site was compared to the LRRKtide by phosphorylation with LRRK2. […] The LRRK2 affinity for the longLRRKtide is ten fold more than that that of LRRKtide.
A derived consensus sequences is shown below the positions. FIG. 24B depicts an alignment of the peptide substrate sequences previously used for LRRK2, LRRKtide and LongLRRKtide, along with a new peptide in which the preferred LRRK2 residues are substituted, henceforth referred to as Nictide. […] Calculated Km values are 6 μM for Nictide.

A further assay concerns Human Platelets. To be noted: non-specific serine/threonine kinase inhibitor; cited from earlier work.

Regarding RLGWWRFYTLRRARQGNTKQR [Nictide], in the assay on LRRK2 (5 min reaction times, read-out: Calculated Km), the Km was 6 µM.

For “RLGRDKYKTLRQIRQGNTKQR (listed as Homo sapiens) [longLRRKtide]”, in the assay with LRRK2 (compared to LRRKtide), the “LRRK2 affinity relative to LRRKtide” value is reported as “ten fold”.

Turning to `CN[C@@H]1C[C@H]2O[C@@](C)([C@@H]1OC)n1c3ccccc3c3c4c(c5c6ccccc6n2c5c31)C(=O)NC4` [staurosporine], in the assay with Human Platelets, the “effect on platelet behaviour” value was “form extremely long filopodia and not to spread on glass”.
